Measurements taken from patent US20100150948A1, “MATERIALS AND METHODS FOR IMPROVED IMMUNOGLYCOPROTEINS” (TRUBION PHARMACEUTICALS, INC., priority 2006, published 2010).

Assays:
CD37 and FcγRIIIa (CD16) = test: Simultaneous binding of TRU-016 to CD37 and FcγRIIIa (CD16) on Daudi cells; design: species or system human; details: CS 0-800 μM in culture; response up to 400 μM, at which point the binding appears to level off
Procedure: TRU-016 produced as described in Example 8 was tested in the following assay, which simultaneously evaluates the ability of the TRU-016 binding domain to bind to a CD37 expressing target cell and the ability of the Fc portion of the TRU-016 SMIP to bind a fusion protein of human CD16 and murine IgG Fc.
The target cell utilized is the Daudi (ATCC CRL-213) cell line. Daudi cells are a human B-lymphoblastoid cell line derived from a Burkitt's lymphoma and express high levels of CD37. The custom soluble CD16:MuIgGFc fusion protein is human CD16 (low affinity polymorphism) linked to a murine IgG Fc.
The appropriate number of Daudi cells (350,000/well times the number of wells) is aliquoted and centrifuged at 250×g for 5 minutes at 15° C. The supernatant is removed. One percent cold paraformaldehyde is prepared by diluting the 4% stock from USB (USB US19943) 1:4 with FACS Buffer. FACS Buffer is prepared by adding 2% FBS (Gibco) to Dulbecco's PBS (Invitrogen) (v/v) and sterile filtering with a 0.22 μm filter. FACS Buffer is stored and used at 4° C. […]
Each sample's bound fluorescence is measured on a BD FACSCalibur flow cytometry system and analyzed with Cell Quest Pro software (Becton Dickinson, ver 5.2). The GeoMean fluorescence intensity for each sample is plotted relative to the TRU-016 concentration. […]

[1] = design: species or system BALB/c mice; details: mouse, in vivo, iv, 200 ug
Procedure: Female BALB/c mice were injected i.v. with 200 μg of TRU-016 test protein (TRU-016 produced by untreated CHO cells or by CHO cells treated with 200 μM DMJ, […] or 200 μM castanospermine) at time 0. Serum samples were collected (3 mice per time point) at 15 min, 2, 6, 24, 48, 72, 96, and 192 hours post injection. The serum concentration of each TRU-016 test sample was determined in a FACS-based binding assay using the CD37+ Ramos human cell line. CD37+ Ramos cells (5×10^5 cells/well) were incubated in 96 well flat bottom plates along with the serum sample to be tested. Spiked serum samples were used for the standard curves. Cells were incubated at 4° C. for an hour and washed before addition of the detection antibody. Binding of TRU-016 test protein to CD37+ Ramos cells was detected using a fluorescein-conjugated goat anti-human IgG Fcγ fragment-specific antibody. Standard curves were used to construct a binding curve as a function of antigen concentration. Briefly, standard curves consisted of various known concentrations of the TRU-016 test protein spiked into normal mouse serum diluted 1:20 in FACS buffer. The standard curves were run in duplicate on each plate. Mean fluorescence intensities (MFI) from the FACS analysis were imported into Softmax Pro software and were used to calculate serum concentrations of the TRU-016 test protein.

Row | Compound | simultaneous binding of TRU-016 to CD37 and CD16 (GeoMean fluorescence, D-parameter) (CD37 and FcγRIIIa (CD16)) | effect of carbohydrate modifier on half-life or other pharmacokinetic parameters [1]
1 | O[C@H]1[C@H](O)[C@@H](O)CN2CC[C@H](O)[C@H]12 [castanospermine] | dose-dependent binding response | 
2 | TRU-016: recombinant single chain protein (SMIP) that binds CD37; G28-1 binding domain, modified hinge, human IgG1 CH2 and CH3; SEQ ID NO: 2 |  | no significant effect
